From patent US10953003B2, “Methods for treating cancer” (X4 Pharmaceuticals, Inc., priority 2015, dated 2021)

Tests used:
[1] = system: A498 RCC xenografts; assay: Murine A498 RCC xenograft model; format: in vivo, mice; settings: for MDSC infiltration of tumors: CD11b+ GR-1+ cells, FIGS. 5B, 5D; for effects on tumor growth: nude/beige mice, tumors measured on day 7, FIG. 1B
Experimental: (§1) With each of the human cell lines, 1×10^7 tumor cells were implanted subcutaneously in the flanks of 36 nude/beige mice and tumors allowed to grow to roughly 7 mm in diameter. […] Therefore, on day 7, the mice were sacrificed and the tumors were measured and immediately excised and divided into three parts. One part of each tumor was paraffin-embedded for dual color immunofluorescence. Another part was mechanically disaggregated and treated with collagenase/DNAse to generate a single cell suspension for flow cytometry. The third part was frozen for future pharmacokinetic analysis. Microscope slides were made from the paraffin-embedded tumor tissue, which were stained with antibodies against CD11b, Gr-1, and FAP. The number of infiltrating CD11b+/Gr-1+ MDSC and FAP+ fibroblasts present in the tumor tissue was then determined by immunofluorescence (IF) as previously described (1).
(§2) The disaggregated tumor specimens were analyzed for CD11b+/Gr-1+ MDSC and FAP+ fibroblasts by flow cytometry. The fraction of both populations expressing CXCR4 were also determined. At the time the mice were sacrificed, the spleens were removed and cut in half. One part was disaggregated into single cell suspensions and analyzed by flow cytometry as above for MDSC. The second half was frozen for future analyses, such as PK analysis. Finally, a bone marrow (BM) sample was generated by extruding marrow from an excised femur with a syringe filled with saline and analyzed by flow cytometry for MDSC.

[2] = system: 786-0 RCC xenografts; assay: Murine 786-0 RCC xenograft model; format: in vivo, mice; settings: for effects on tumor growth / MDSC infiltration of tumors: 786-0 xenografts; for effects on tumor growth: nude/beige mice, tumors measured on day 7, FIG. 1A; for MDSC infiltration of tumors: CD11b+ GR-1+ cells, FIGS. 5A, 5C
Experimental: as §1, §2

[3] = Phase 1 and 2a trials; cited from earlier work
[4] = system: A375 cells; assay: A375 cells with or without constitutively active Stat3 construct, treated 24 h; format: cell-based; settings: A375 cells +/- constitutively active Stat3, 24 h, normoxic or hypoxic; FIG. 15
From the text: FIG. 15A illustrates Western blot results from lysates of A375 cells or A375 cells transfected with a constitutively active Stat3 construct. […] Without wishing to be bound by theory, it is believed that Stat3 is important in promoting CXCL-12 mediated invasion of tumors.

[5] = system: 786 cells; assay: 786 cells treated in vitro for 24 hours, normoxic and hypoxic (1% O2); format: cell-based, human; settings: 786 hypoxic cells in vitro
From the text: FIG. 14B illustrates mir-30a and mir-30c microRNA and (FIG. 14C) total HIF-2α, RNA expression from the same cells from FIG. 14A.

[6] = over the range pH 1.1 to pH 7.8; cited from earlier work
[7] = oral axitinib; see current product label; cited from earlier work
[8] = cited from earlier work
[9] = system: renal cell carcinoma (RCC) xenografts; settings: cited from earlier work

| Molecule | MDSC infiltration of tumors [1] | effects on tumor growth [1] | effects on tumor growth [2] | MDSC infiltration of tumors [2] | level of HIF-2α ([2]; 786 xenograft tumors, Western blots, 8 days of treatment, FIGS. 11, 13) | pharmacodynamic activity: circulating white blood cells (WBCs) [3] | volume of distribution (VL) [3] | suppression of HIF-2α and induction of mir-30a and 30c [4] | mir-30a and mir-30c microRNA ([5]; FIG. 14B) | HIF-2α ([5]; FIGS. 14A, 14C) | solubility in aqueous media [6] [µg/mL] | micro-RNAs mir-30a and mir-30c expression ([2]; 786-0 xenograft tumor, after 8 days of treatment, FIG. 12) | absorption, effect of food [7] | pKa [8] | development of sunitinib resistance ([9]; MI-319 given concurrently with sunitinib) | infiltration of RCC xenografts with CD11b+/Gr-1+ MDSC ([9]; earlier work by some of the inventors, MI-319 given concurrently with sunitinib) | HIF-2 expression ([9]; earlier work of the inventors) |
| --- | --- | --- | --- | --- | --- | --- | --- | --- | --- | --- | --- | --- | --- | --- | --- | --- | --- |
| NCCCCN(Cc1nc2ccccc2[nH]1)[C@H]1CCCc2cccnc21 [X4P-001] | significantly less MDSC infiltration | modest | modest | significantly less MDSC infiltration | reduction in the level of HIF-2α relative to that caused by axitinib treatment | dose- and concentration-related changes | high | dependent on Stat3 expression | mir-30a and mir-30c induction | HIF-2α reduction |  |  |  |  |  |  |  |
| CNC(=O)c1ccccc1Sc1ccc2c(/C=C/c3ccccn3)n[nH]c2c1 [axitinib, N-methyl-2-[3((E)-2-pyridin-2-yl-vinyl)-1H-indazol-6-ylsulfanyl]-benzamide] | extensive MDSC infiltration | no | no | extensive MDSC infiltration |  |  |  |  |  |  | > 0.2 | suppressed | not altered by food | 4.8 |  |  |  |
| MI-319 |  |  |  |  |  |  |  |  |  |  |  |  |  |  | prevented | prevented | suppresses |
